From PubChem BioAssay AID1963445 (Molecular Pharmacology Branch, DTP, NCI, 2024)

Test system: MCF7 complex spheroid growth, % test/control
Experiment: Anticancer human tumor MCF7 cell line growth inhibition [Asc];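 note: spheroids exposed to compounds for 7 days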;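 for viability, T/C: 100% = DMSO vehicle control wells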
Settings: for IC50: curve of first compound; for viability, T/C: stronger effect = lower value
How it was run: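 Tumor cells were grown as complex spheroids with human endothelial cells (HUVEC) and human mesenchymal stem cells as stroma. Agents were tested alone and in combination, in half-log steps down from the clinical Cmax, or from 10 microM where Cmax was unknown.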

`Cn1ncnc1[C@H]1c2n[nH]c(=O)c3cc(F)cc(c23)N[C@@H]1c1ccc(F)cc1` + Cc1c(S(C)(=O)=O)c(-c2cc(F)cc(N3CCN(c4ccc(NS(=O)(=O)c5ccc(NC(CCN6CCC(C(=O)OCCCP(=O)(O)O)CC6)CSc6ccccc6)c(S(=O)(=O)C(F)(F)F)c5)cc4)CC3)c2)c(-c2ccc(Cl)cc2)n1C(C)C showed an IC50 (second compound 0.0316 µM) of 20.6 nM, an IC50 (second compound 0.1 µM) of 44.3 nM and an IC50 (second compound 0.316 µM) of 32.1 nM. It also gave an IC50 (second compound 1 µM) of 22.5 nM, an IC50 (second compound 3.16 µM) of 39.4 nM and an IC50 (second compound 10 µM) of 17.2 nM. It also gave a viability, T/C (second compound 0.0316 µM, first compound 0.000316 µM) of 116%, a viability, T/C (second compound 0.0316 µM, first compound 0.001 µM) of 113% and a viability, T/C (second compound 0.0316 µM, first compound 0.00316 µM) of 74.6%. For the same compound, the viability, T/C (second compound 0.0316 µM, first compound 0.01 µM) was 59.4%, the viability, T/C (second compound 0.0316 µM, first compound 0.0316 µM) was 50.7% and the viability, T/C (second compound 0.0316 µM, first compound 0.1 µM) was 39.7%. For the same compound, the viability, T/C (second compound 0.1 µM, first compound 0.000316 µM) was 100%, the viability, T/C (second compound 0.1 µM, first compound 0.001 µM) was 89.8% and the viability, T/C (second compound 0.1 µM, first compound 0.00316 µM) was 78.9%. The viability, T/C (second compound 0.1 µM, first compound 0.01 µM) was 57.7%, the viability, T/C (second compound 0.1 µM, first compound 0.0316 µM) was 50.5% and the viability, T/C (second compound 0.1 µM, first compound 0.1 µM) was 49%. The viability, T/C (second compound 0.316 µM, first compound 0.000316 µM) was 103%, the viability, T/C (second compound 0.316 µM, first compound 0.001 µM) was 75% and the viability, T/C (second compound 0.316 µM, first compound 0.00316 µM) was 80.9%. For the same compound, the viability, T/C (second compound 0.316 µM, first compound 0.01 µM) was 54.2%, the viability, T/C (second compound 0.316 µM, first compound 0.0316 µM) was 50.9% and the viability, T/C (second compound 0.316 µM, first compound 0.1 µM) was 42.9%. For the same compound, the viability, T/C (second compound 1 µM, first compound 0.000316 µM) was 106%, the viability, T/C (second compound 1 µM, first compound 0.001 µM) was 81.7% and the viability, T/C (second compound 1 µM, first compound 0.00316 µM) was 95.7%. For the same compound, the viability, T/C (second compound 1 µM, first compound 0.01 µM) was 66.7%, the viability, T/C (second compound 1 µM, first compound 0.0316 µM) was 44.8% and the viability, T/C (second compound 1 µM, first compound 0.1 µM) was 39.3%. It also gave a viability, T/C (second compound 3.16 µM, first compound 0.000316 µM) of 110%, a viability, T/C (second compound 3.16 µM, first compound 0.001 µM) of 86.8% and a viability, T/C (second compound 3.16 µM, first compound 0.00316 µM) of 89.4%. For the same compound, the viability, T/C (second compound 3.16 µM, first compound 0.01 µM) was 57.3%, the viability, T/C (second compound 3.16 µM, first compound 0.0316 µM) was 50.6% and the viability, T/C (second compound 3.16 µM, first compound 0.1 µM) was 46.5%. For the same compound, the viability, T/C (second compound 10 µM, first compound 0.000316 µM) was 85.3%, the viability, T/C (second compound 10 µM, first compound 0.001 µM) was 83.6% and the viability, T/C (second compound 10 µM, first compound 0.00316 µM) was 74.6%. For the same compound, the viability, T/C (second compound 10 µM, first compound 0.01 µM) was 51.7%, the viability, T/C (second compound 10 µM, first compound 0.0316 µM) was 49.9% and the viability, T/C (second compound 10 µM, first compound 0.1 µM) was 36.7%.
